According to patent US20060148848A1, “Compounds and methods for treating cancer and inflammation” (QLT, Inc., priority 2002, published 2006):

Tests used:
LL-86 cells = assay: Cytotoxicity assay (calcein AM cell viability), LL-86; assay type: cell-based; conditions: 50 μM, approximately 24 hours
Description: (§1) This procedure is used to assess the effects compounds have on various cell lines with respect to cell viability. Cell viability is quantified using calcein AM and measuring its conversion to a fluorescent product (calcein) with a fluorimeter.
(§2) The principle of this assay is based on the presence of ubiquitous intracellular esterase activity found in live cells. By enzymatic reaction of esterase, non-fluorescent cell-permeant calcein AM is converted to the intensely fluorescent calcein. The polyanionic dye calcein is retained within live cells, producing a green fluorescence in live cells. […]
(§3) Cells were collected from tissue culture flasks and trypsinized, centrifuged, resuspended and counted. […]
(§4) The calcein AM solution is prepared by added 50 μg of calcein AM crystal (m.w.=994.87 g/mol, Molecular Probes, Eugene, Oreg.) and nnhydrous DMSO (Sigma Aldrich) to make 1 mM stock and diluting stock to 2× the final desired concentration in 1×DPBS just before the assay. […] Fluorescence data was read and recorded (Fluoroskan Ascent® FL fluorimeter (excitation˜485 nm, emission˜527 nm)).
(§5) The values for replicates (usually six) are averaged and % inhibition is calculated as follows: % inhibition=100−[(AVG treatment−AVG positive control)/(AVG negative control−AVG positive control)*100]

HUVEC cells [1] = assay: Cell proliferation (3H-thymidine incorporation), HUVEC; assay type: cell-based; conditions: Homo sapiens, 24 hours, read-out: in vitro inhibition of cell proliferation
Description: (§6) This procedure (Jelinkova, R. B. et al., “Antiproliferative effect of a lectin- and anti-Thy-1.2 antibody-targeted HPMA copolymer-bound doxorubicin on primary and metastatic human colourectal carcinoma and on human colourectal carcinoma transfected with the mouse Thy-1.2 gene”, Bioconjug. Chem. (2000), Vol. 11, No. 5, pp. 664-73) is used to assess the effect compounds have on various cell lines with respect to proliferation. The rate of anchorage-independent growth of various tumour cells is quantified by measuring the amount of free isotopic thymidine that has been incorporated into the cells over a period of time. The effect of any compound to inhibit the proliferation of various tumour cells could be used as an indication of its ability to prevent disease progression in cancer.
(§7) Cultured tumour cells are harvested cells as per normal procedures: i.e. trypsinize, centrifuge and count cells. […]
(§8) After incubation, plates are observed under the microscope for obvious cell death, abnormal cell shape, crystal formation of the compound, etc. […] Finally, 100 μL of scintillation fluid is added to each well and the plates are counted in a Wallac™ 1450 Microbeta™ counter according to user manual instructions.
(§9) The amount of inhibition is determined by the following formula: % inhibition=100−[(AVG treatment−AVG positive control)/[…]]

SGK2α = target: T1, SGK2α (Homo sapiens, UniProt Q9HBY8); assay: SGK2α in vitro kinase assay; assay type: biochemical; conditions: recombinant human GST-SGK2α, [γ-32P]-ATP, 15 minutes at ambient temperature
T1 construct: made in house; host or cells: baculovirus; Sf9 (virus generation) and High Five insect cells (expression)
T1 sequence (Q9HBY8 1-367): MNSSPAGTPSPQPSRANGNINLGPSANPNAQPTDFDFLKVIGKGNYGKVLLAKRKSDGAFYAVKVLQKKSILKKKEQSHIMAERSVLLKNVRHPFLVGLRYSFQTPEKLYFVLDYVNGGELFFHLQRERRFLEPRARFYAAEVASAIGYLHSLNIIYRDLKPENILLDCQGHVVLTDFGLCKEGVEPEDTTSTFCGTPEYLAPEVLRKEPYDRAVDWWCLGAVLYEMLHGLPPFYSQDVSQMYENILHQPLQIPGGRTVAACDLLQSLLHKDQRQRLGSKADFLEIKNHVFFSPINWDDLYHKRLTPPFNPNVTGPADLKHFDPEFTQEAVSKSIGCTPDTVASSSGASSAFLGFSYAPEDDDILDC
Description: SGK2α cDNA was cloned from human brain cDNA library by the polymerase chain reaction (PCR) technique and subsequently inserted directly into pPCR-2.1 T/A cloning vector (Strategene). After DNA sequencing, the confirmed wild-type human SGK2α cDNA was subcloned into baculovirus expression vector pAcG2T (BD PharMingen) for recombinant protein expression in insect cells. Expression of human SGK2α as a fusion protein required that the cDNA be ligated into the polyclonal site situated in frame and downstream of the glutathione-S-transferase gene of the baculovirus transfer vector pAcG2T. The 1104 base pair SGK2α coding sequence was excised from the pPCR-2.1 T/A vector using the Bam HI and Eco RI restriction sites generated the 5′ and 3′ of the coding sequence respectively by PCR amplification. This DNA fragment was directionally subcloned in-frame into the Bam HI and Eco RI polyclonal sites of the pAcG2T vector. Positive recombinant clones of SGK2α in the pAcG2T vector were determined by restriction enzyme analysis with Bam HI and Eco RI restriction enzymes.
Active SGK2α enzyme was expressed using the baculovirus expression vector system in a two-step process. […] A complete quantitative and qualitative analysis of the protein was monitored using Coomassie blue staining and Western blot analysis using anti-GST specific antibody (Kinetek). […]

PC3 cells = assay: Cell proliferation (3H-thymidine incorporation), PC3; assay type: cell-based; conditions: Homo sapiens, PC-3, 24 hours, read-out: in vitro inhibition of cell proliferation
Description: as §6, §7, §8, §9

HUVEC cells [2] = assay: Cytotoxicity assay (calcein AM cell viability), HUVEC; assay type: cell-based; conditions: 50 μM, approximately 24 hours
Description: as §1, §2, §3, §4, §5

H460 cells = assay: Cell proliferation (3H-thymidine incorporation), H460; assay type: cell-based; conditions: Homo sapiens, NCI-H460, 24 hours, read-out: in vitro inhibition of cell proliferation
Description: as §6, §7, §8, §9

HS27 cells = assay: Cytotoxicity assay (calcein AM cell viability), HS27; assay type: cell-based; conditions: 50 μM, approximately 24 hours
Description: as §1, §2, §3, §4, §5

Q: For `CCc1c2cc(OC)c(OC)cc2cc(=O)n1Cc1ccccc1` [2-Benzyl-1-ethyl-6,7-dimethoxy-2H-isoquinolin-3-one], which in vitro cytotoxicity (LL-86 cells) is on record?
A: Its in vitro cytotoxicity is 0%.

Q: What about the inhibition at 50 µM (HUVEC cells [1]) of the same molecule?
A: The inhibition at 50 µM was 42%.

Q: And the IC50 (SGK2α)?
A: Its IC50 is 970 nM.

Q: And the inhibition at 50 µM (PC3 cells)?
A: The inhibition at 50 µM was 67%.

Q: What about the in vitro cytotoxicity (HUVEC cells [2]) of the same molecule?
A: Its in vitro cytotoxicity is 4%.

Q: And the inhibition at 50 µM (H460 cells)?
A: Its inhibition at 50 µM is 27%.

Q: And the in vitro cytotoxicity (HS27 cells)?
A: The in vitro cytotoxicity was 0%.
